Test results as given in patent US10815379B2, “pH sensitive fluorescent probe” (The University of Tokyo, priority 2015, dated 2020).
Like-named read-outs stand apart in the source and are kept apart here.

How the values were obtained:
[1] = Optical characteristics (absorption, fluorescence, excitation spectra) in 100 mM sodium phosphate buffer; format: physicochemical; conditions: for absorption maximum / absorption wavelength, acidic pH: acidic solution; for absorption maximum / absorption wavelength, basic pH: basic solution
Protocol: The spectral characteristics of compound 1 of the present invention (2,6-diMe BnPiperaIndoSiR) were evaluated. The absorption spectrum, fluorescence spectrum, and excitation spectrum were measured using a Shimadzu UV-1650PC absorption spectrophotometer and a Hitachi F-4500 fluorometer.
(§1) FIG. 2a represents the assumed chemical equilibrium equation of 2,6-diMe BnPiperaIndoSiR. FIGS. 2b, 2c, and 2d respectively represent the absorption, fluorescence, and excitation spectra of 2,6-diMe BnPiperaIndoSiR in 100 mM sodium phosphate buffer (containing 1% DMSO) of different pH.
The spectral characteristics of compound 2 of the present invention (SiRpH3) were evaluated. The absorption spectrum fluorescence spectrum, and excitation spectrum were measured using a Shimadzu UV-1650PC absorption spectrophotometer and a Hitachi F-4500 fluorometer.
(§2) FIGS. 3a, 3b, and 3c represent the absorption, fluorescence, and excitation spectra of SiRpH3 in 100 mM sodium phosphate buffer (containing 1% DMSO) of different pH.
The spectral characteristics of compound 3 of the present invention (SiRpH4) were evaluated. The absorption spectrum fluorescence spectrum, and excitation spectrum were measured using a Shimadzu UV-1650PC absorption spectrophotometer and a Hitachi F-4500 fluorometer.
(§3) FIGS. 4a and 4b represent the absorption and excitation spectra of SiRpH4 in 100 mM sodium phosphate buffer (containing 1% DMSO) of different pH.
The spectral characteristics of compound 4 of the present invention (SiRpH5) were evaluated. The absorption spectrum fluorescence spectrum, and excitation spectrum were measured using a Shimadzu UV-1650PC absorption spectrophotometer and a Hitachi F-4500 fluorometer.
(§4) FIG. 5a represents the assumed chemical equilibrium equation of SiRpH5. FIGS. 5b and 5c represent the absorption and excitation spectra of SiRpH5 in 100 mM sodium phosphate buffer (containing 1%) DMSO) of different pH.

[2] = pKa of the protonation reaction from plot of absorbance or fluorescence intensity ratio vs. pH; format: physicochemical; conditions: for pKa of the protonation reaction: 100 mM sodium phosphate buffer, 1% DMSO
Protocol: as §1, §2, §3, §4

[3] = cited from earlier work
[4] = pH 3.0, 100 mM sodium phosphate buffer
[5] = pH 10.0, 100 mM sodium phosphate buffer
[6] = Table 3, pH 3.0, 100 mM sodium phosphate buffer
[7] = Table 3, pH 10.0, 100 mM sodium phosphate buffer
[8] = Table 2, pH 3.0, 100 mM sodium phosphate buffer
[9] = Table 2, pH 7.4, 100 mM sodium phosphate buffer
[10] = Table 2, pH 10.0, 100 mM sodium phosphate buffer

**Q.** Which Absmax [1, 4] does the source give for `Cc1cccc(C)c1C1=c2cc3c(cc2[Si](C)(C)c2cc(N4CCN(Cc5ccccc5)CC4)ccc21)=[N+](C)CC3.O=C(O)C(F)(F)F` [2,6-diMe BnPiperaIndoSiR] here?
**A.** Its Absmax is 588 nm.

**Q.** What about the E [1, 4] of the same compound?
**A.** Its E is 26,000 M^−1 cm^−1.

**Q.** And the Emmax [1, 4]?
**A.** The Emmax was 676 nm.

**Q.** And the Φfl [1, 4]?
**A.** The Φfl was 0.19.

**Q.** What about the Absmax [1, 5] of the same compound?
**A.** The Absmax was 663 nm.

**Q.** And the E [1, 5]?
**A.** Its E is 33,000 M^−1 cm^−1.

**Q.** And the Emmax [1, 5]?
**A.** Its Emmax is 689 nm.

**Q.** What about the Φfl [1, 5] of the same compound?
**A.** Its Φfl is 0.12.

**Q.** What about the “decrease of pKa in comparison to 2-Me MePiperaIndoSiR” value ([2]; by benzylation of the piperazine aliphatic amino group) of the same compound?
**A.** Its value is 0.9.

**Q.** What about the “pKa of the protonation reaction” value ([2]; from changes in absorbance at 663 nm when the pH was varied) of the same compound?
**A.** Its value is 6.4.

**Q.** For `Cc1cc(C(=O)O)cc(C)c1C1=c2cc3c(cc2[Si](C)(C)c2cc(N4CCN(Cc5ccc(S(=O)(=O)O)cc5S(=O)(=O)O)CC4)ccc21)=[N+](C)CC3.O=C([O-])C(F)(F)F` [SiRpH5], which Λem [1, 6] is on record?
**A.** The Λem was 679 nm.

**Q.** And the Λex [1, 6]?
**A.** Its Λex is 588 nm.

**Q.** And the Φfl [1, 6]?
**A.** The Φfl was 0.21.

**Q.** And the ε [1, 6]?
**A.** Its ε is 23,000 M^−1cm^−1.

**Q.** What about the Λem [1, 7] of the same compound?
**A.** The Λem was 690 nm.

**Q.** And the Λex [1, 7]?
**A.** The Λex was 668 nm.

**Q.** And the Φfl [1, 7]?
**A.** The Φfl was 0.08.

**Q.** And the ε [1, 7]?
**A.** Its ε is 33,000 M^−1cm^−1.

**Q.** What about the “absorption maximum / absorption wavelength, acidic pH” value [1] of the same compound?
**A.** The value was “approximately 590 nm”.

**Q.** What about the “absorption maximum / absorption wavelength, basic pH” value [1] of the same compound?
**A.** The value was “approximately 670 nm”.

**Q.** What about the “pKa of the protonation reaction” value ([2]; from plot of fluorescence intensity ratio (700 nm, excitation 580 nm / 663 nm) vs. pH) of the same compound?
**A.** Its value is 6.1.

**Q.** What about the “shift of the pKa of the ratio value change” value ([2]; in comparison to the named probe) of the same compound?
**A.** Its value is “shifted to the acidic side in comparison to SiRpH4”.

**Q.** With `Cc1cccc(C)c1C1=c2cc3c(cc2[Si](C)(C)c2cc(N4CCN(Cc5ccccc5S(=O)(=O)O)CC4)ccc21)=[N+](C)CC3` [SiRpH4] as the compound, how does the “shift of the pKa of the ratio value change” value [2] read?
**A.** Its value is “shifted to the basic side in comparison to SiRpH3”.

**Q.** For `Cc1cccc(C)c1C1=c2cc3c(cc2[Si](C)(C)c2cc(N4CCN(Cc5cccc(F)c5)CC4)ccc21)=[N+](C)CC3.O=C(O)C(F)(F)F` [SiRpH3], which “lengthening of the absorption wavelength as the pH moved from acidic to basic” value [1] is on record?
**A.** The value was “approximately 80 nm”.

**Q.** What about the Absmax [1, 8] of the same compound?
**A.** The Absmax was 585 nm.

**Q.** And the E [1, 8]?
**A.** Its E is 25,000 M^−1cm^−1.

**Q.** And the Emmax [1, 8]?
**A.** The Emmax was 676 nm.

**Q.** And the Φfl [1, 8]?
**A.** Its Φfl is 0.20.

**Q.** What about the Absmax [1, 9] of the same compound?
**A.** Its Absmax is 662 nm.

**Q.** What about the E [1, 9] of the same compound?
**A.** Its E is 30,000 M^−1cm^−1.

**Q.** What about the Emmax [1, 9] of the same compound?
**A.** The Emmax was 688 nm.

**Q.** What about the Φfl [1, 9] of the same compound?
**A.** The Φfl was 0.12.

**Q.** What about the Absmax [1, 10] of the same compound?
**A.** Its Absmax is 663 nm.

**Q.** What about the E [1, 10] of the same compound?
**A.** Its E is 31,000 M^−1cm^−1.

**Q.** What about the Emmax [1, 10] of the same compound?
**A.** The Emmax was 689 nm.

**Q.** And the Φfl [1, 10]?
**A.** The Φfl was 0.11.

**Q.** And the “absorption maximum / absorption wavelength, acidic pH” value [1]?
**A.** The value was “approximately 580 nm”.

**Q.** And the “absorption maximum / absorption wavelength, basic pH” value [1]?
**A.** Its value is “approximately 660 nm”.

**Q.** With “2′,7′-bis-(2-carboxyethyl)-5- (and -6-)carboxyfluoresceins [BCECF]” as the compound, how does the pKa [3] read?
**A.** The pKa was 7.0.
